Source: patent publication US6750177B2, “Herbicide combination with acylated aminophenylsulfonylureas” (priority 2002, dated 2004)
Read-outs that look alike come from different tables or passages of the source.

Key:
Assay type in all cases: in vivo
Polygonum convolvulus = experiment: Herbicidal action (field trials), Polygonum convolvulus; details: Fallopia convolvulus, field trial
Description: (§1) The seeds or rhizome pieces of typical harmful plants were planted and grown under natural field conditions. Before the harmful plants had emerged or after the harmful plants had emerged, they were treated, as a rule at the 2- to 8-leaf stage, with various dosages of the compositions according to the invention at a water application rate of 100 to 400 I/ha (converted).
(§2) After the treatment (approx. 4-6 weeks after application), the herbidical activity of the active ingredients or active ingredient mixtures was scored visually by comparing the treated plots with the untreated control plots. Damage and development of all aerial parts of the plants was recorded. Scoring was done on a percentage scale (100% action=all plants dead; 50% action=50% of the plants and green plant parts dead; 0% action=no discernible action=like control plot). The score figures of in each case 4 plots was averaged.
(§3) The results are shown in the tables which follow, the action when using active ingredients (A+B) and (C) independently being stated in brackets.

Maize = system: Maize
Description: as §1, §2, §3

Setaria spp. = experiment: Herbicidal action (field trials), Setaria spp.; details: field trial
Description: as §1, §2, §3

Sorghum verticillata = experiment: Herbicidal action (field trials), Sorghum verticillata; details: 60 g As/ha, field trial
Description: as §1, §2, §3

Compound: N#Cc1cc(Br)c(O)c(Br)c1 [bromoxynil (C33), 3,5-dibromo-4-hydroxybenzonitrile]
- inhibition at 240 g/ha (Polygonum convolvulus; 240 g As/ha): 40%
- Maize % damage (Maize; 240 g As/ha, field trial (table part with Polygonum convolvulus)): 2%

Compound: COc1nc(C)nc(NC(=O)NS(=O)(=O)c2ccccc2CCC(F)(F)F)n1 [prosulfuron (C42), 1-(4-methoxy-6-methyl-1,3,5-triazin-2-yl)-3-[2-(3,3,3-trifluoropropyl)phenylsulfonyl]urea]
- inhibition at 40 g/ha (Setaria spp.; 40 g As/ha): 15%
- Maize % damage (Maize; 40 g As/ha, field trial (table part with Setaria spp.)): 7%

Compound: COc1cc(OC)nc(NC(=O)NS(=O)(=O)c2ncccc2C(=O)N(C)C)n1 [nicosulfuron (C15), 2-(4,6-dimethoxypyrimidin-2-yl)-3-(3-dimethylcarbamoyl-2-pyridylsulfonyl)urea]
- inhibition at 60 g/ha (Sorghum verticillata): 74%
- Maize % damage (Maize; 60 g As/ha, field trial (table part with Sorghum verticillata)): 0%

Compound: COc1cc(OC)nc(NC(=O)NS(=O)(=O)c2c(C(=O)O)c(Cl)nn2C)n1 [halosulfuron (C40), 3-chloro-5-(4,6-dimethoxypyrimidin-2-ylcarbamoylsulfamoyl)-1-methylpyrazole-4-carboxylic acid]
- inhibition at 36 g/ha (Setaria spp.; 36 g As/ha): 0%
- Maize % damage (Maize; 36 g As/ha, field trial (table part with Setaria spp.)): 3%

Compound: COc1c(Cl)ccc(Cl)c1C(=O)O [dicamba (C20), 3,6-dichloro-o-anisic acid]
- inhibition at 60 g/ha (Polygonum convolvulus; 60 g As/ha): 35%
- Maize % damage (Maize; 60 g As/ha, field trial (table part with Polygonum convolvulus)): 0%
